Read-outs that look alike come from different tables or passages of the source. Starred links: 1 amine or outer side, 2 acyl side, 3 side chain; linkers in the order of their positions; H or OH if unused. Non-standard residues stand in square brackets, D forms with d. Residues, ends and D or L forms follow the SMILES beside them. Groups on a side chain read outwards from the residue. *: point of attachment. C18 diacid = O=C(O)CCCCCCCCCCCCCCCCC(=O)*; Dip = N[C@H](C(=O)O)C(c1ccccc1)c1ccccc1; γGlu = O=C(O)[C@H](CCC(=O)[*:2])N[*:1]; Stearoyl = CCCCCCCCCCCCCCCCCC(=O)*; αMeF = C[C@](N)(Cc1ccccc1)C(=O)O; PEG2 = NCCOCCOCCC(=O)O; AEEA = NCCOCCOCC(=O)O; Aib = CC(C)(N)C(=O)O

Data on three molecules can be found in patent US12630600B2 (MEDIMMUNE LIMITED, priority 2022, dated 2026).

Test [1] deals with T1, human GLP-1 receptor (hGLP-1R) (Homo sapiens, UniProt P43220).
T1 construct: expressed in transfected cells; host or cells: CHO
In words: cAMP production (HTRF) in CHO cells expressing human GLP-1 receptor. It is filed as cell-based. The following applies: for EC50: cAMP, geometric mean, read-out: hGLP-1R EC50; for % Relative Potency Ratio: % GLP-1R activity relative to GLP-1 / % GlucR activity relative to glucagon.

Test [2] has as its target T2, human glucagon receptor (hGCGR) (Homo sapiens, UniProt P47871).
T2 construct: expressed in transfected cells; host or cells: CHO
In words: cAMP production (HTRF) in CHO cells expressing human glucagon receptor. The test is classed as cell-based. The following applies: read-out: hGluc-R EC50. As to the method:
Cells were re-suspended in assay buffer at a batch-dependent optimized concentration (typically hGLP-1R cells at 1×10^5 cells/mL, hGCGR cells at 2×10^5 cells/mL).
Cells were added to the assay plate using a multidrop dispenser and incubated at room temperature for 30 minutes before measuring the cAMP level using a cAMP dynamic 2 homogeneous time resolved Fluorescence (HTRF) kit (Cisbio Bioassays #62AM4PEJ) following the two-step protocol as per manufacturer's recommendations. In brief, anti-cAMP cryptate (donor fluorophore) and cAMP-d2 (acceptor fluorophore) were made up separately by diluting each 1 in 20 in conjugate and lysis buffer provided in the kit. Anti-cAMP cryptate was added to all wells of the assay plate, followed by cAMP-d2 added to all wells except non-specific binding (NSB) wells (to which conjugate and lysis buffer was added).
Data was transformed to % Delta F as described in the manufacturer's guidelines and analyzed by 4-parameter logistic fit to determine EC50 values.
(Changes in cAMP serve as a functional read-out for many G protein-coupled receptors.)

Where [3] appears, read: Table 6, modification at position 17, CHO cells expressing hGCGR, geometric mean.

T1 sequence (P43220 24-463): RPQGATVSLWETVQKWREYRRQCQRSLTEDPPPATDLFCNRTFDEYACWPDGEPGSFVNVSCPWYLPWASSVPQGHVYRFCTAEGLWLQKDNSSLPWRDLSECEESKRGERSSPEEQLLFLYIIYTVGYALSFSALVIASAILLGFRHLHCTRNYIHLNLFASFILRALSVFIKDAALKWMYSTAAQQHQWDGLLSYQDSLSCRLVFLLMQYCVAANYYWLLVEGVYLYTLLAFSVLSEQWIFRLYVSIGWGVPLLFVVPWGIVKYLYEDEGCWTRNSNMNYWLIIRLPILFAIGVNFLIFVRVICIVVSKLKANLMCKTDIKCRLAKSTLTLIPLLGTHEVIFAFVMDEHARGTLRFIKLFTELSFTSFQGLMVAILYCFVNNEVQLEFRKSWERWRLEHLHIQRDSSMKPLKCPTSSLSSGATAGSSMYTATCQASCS
T2 sequence (P47871 26-477): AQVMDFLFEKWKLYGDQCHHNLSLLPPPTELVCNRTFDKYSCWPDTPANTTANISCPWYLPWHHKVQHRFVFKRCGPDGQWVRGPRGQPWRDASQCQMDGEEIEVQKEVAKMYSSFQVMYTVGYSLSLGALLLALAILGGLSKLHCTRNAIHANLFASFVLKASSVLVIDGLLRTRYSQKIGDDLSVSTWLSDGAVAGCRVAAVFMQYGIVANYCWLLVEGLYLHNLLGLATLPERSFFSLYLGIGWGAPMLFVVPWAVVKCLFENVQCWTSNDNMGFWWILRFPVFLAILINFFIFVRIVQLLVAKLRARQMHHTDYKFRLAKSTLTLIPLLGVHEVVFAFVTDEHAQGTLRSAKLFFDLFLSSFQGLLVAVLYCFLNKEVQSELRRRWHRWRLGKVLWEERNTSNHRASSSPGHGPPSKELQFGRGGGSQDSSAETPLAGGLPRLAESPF

On to `CCCCCCCCCCCCCCCCCC(=O)N[C@@H](CCC(=O)N[C@@H](CCC(=O)NCCOCCOCCC(=O)NCCOCCOCCC(=O)NCCCC[C@H](NC(=O)[C@H](CO)NC(=O)[C@H](CC(=O)O)NC(=O)[C@H](CC(C)C)NC(=O)[C@@H](NC(=O)[C@H](CCCCN)NC(=O)[C@H](CO)NC(=O)[C@@H](NC(=O)[C@H](CC(=O)O)NC(=O)[C@H](CO)NC(=O)[C@@H](NC(=O)[C@](C)(Cc1ccccc1)NC(=O)[C@H](CO)NC(=O)CNC(=O)[C@H](CCC(N)=O)NC(=O)C(C)(C)NC(=O)[C@@H](N)Cc1c[nH]cn1)[C@@H](C)O)C(C)C)C(c1ccccc1)c1ccccc1)C(=O)N[C@@H](C)C(=O)N[C@@H](C)C(=O)N[C@@H](CCC(N)=O)C(=O)N[C@@H](CC(=O)O)C(=O)N[C@@](C)(Cc1ccccc1)C(=O)N[C@H](C(=O)N[C@@H](CCC(=O)O)C(=O)NC(C)(C)C(=O)N[C@@H](CC(C)C)C(=O)N[C@@H](CCC(=O)O)C(=O)N[C@@H](C)C(=O)NCC(=O)NCC(N)=O)C(C)C)C(=O)O)C(=O)O` [Peptide 44] (H-H[Aib]QGS[αMeF]TSDVSK[Dip]LDSK([PEG2-PEG2-γGlu-γGlu-Stearoyl])AAQD[αMeF]VE[Aib]LEAGG-NH2; N-terminus assumed), for which the EC50 (as a rule, the concentration giving half of the maximal effect) was determined as 2.12 pM in test [1] (Table 6, modification at position 17, CHO cells expressing hGLP-1R) and 18.2 pM in test [2] (setting [3]). Also, in test [1] (Table 6), the “% Relative Potency Ratio” value came out at 17.0.
As for `CC[C@H](C)[C@H](NC(=O)C(C)(C)NC(=O)[C@H](CCCCNC(=O)COCCOCCNC(=O)COCCOCCNC(=O)CC[C@H](NC(=O)CC[C@H](NC(=O)CCCCCCCCCCCCCCCCC(=O)O)C(=O)O)C(=O)O)NC(=O)[C@@H](NC(=O)[C@](C)(Cc1ccccc1)NC(=O)[C@H](CC(=O)O)NC(=O)[C@H](CCC(N)=O)NC(=O)[C@H](C)NC(=O)[C@H](C)NC(=O)[C@H](CCCNC(=N)N)NC(=O)[C@H](CO)NC(=O)[C@H](CC(=O)O)NC(=O)[C@H](CC(C)C)NC(=O)[C@](C)(Cc1ccccc1)NC(=O)[C@H](CCCCN)NC(=O)[C@H](CO)NC(=O)[C@@H](NC(=O)[C@H](CC(=O)O)NC(=O)[C@H](CO)NC(=O)[C@@H](NC(=O)[C@](C)(Cc1ccccc1)NC(=O)[C@H](CO)NC(=O)CNC(=O)[C@H](Cc1c[nH]cn1)NC(=O)C(C)(C)NC(=O)[C@@H](N)Cc1c[nH]cn1)[C@@H](C)O)C(C)C)C(C)C)C(=O)N[C@@H](C)C(=O)N[C@@H](CC(N)=O)C(=O)N[C@H](C(N)=O)[C@@H](C)O` [Peptide 372] (H-H[Aib]HGS[αMeF]TSDVSK[αMeF]LDSRAAQD[αMeF]VK([AEEA-AEEA-γGlu-γGlu-C18 diacid])[Aib]IANT-NH2; N-terminus assumed), the half-maximal effective concentration (EC50) came to 71.8 pM in test [1] (Table 8, peptides modified at position 24, CHO cells) and 35.1 pM in test [2] (Table 8, peptides modified at position 24, geometric mean, CHO cells). The “% Relative Potency Ratio” value in test [1] (Table 8) was 1.0.
As to `CC(C)C[C@H](NC(=O)[C@H](Cc1c[nH]c2ccccc12)NC(=O)[C@H](CCCNC(=N)N)NC(=O)[C@@H](NC(=O)[C@H](Cc1ccccc1)NC(=O)[C@H](CC(=O)O)NC(=O)[C@H](CCCNC(=N)N)NC(=O)[C@H](C)NC(=O)[C@H](CCCNC(=N)N)NC(=O)[C@H](CCCCNC(=O)CC[C@H](NC(=O)CC[C@H](NC(=O)COCCOCCNC(=O)COCCOCCNC(=O)CC[C@H](NC(=O)CC[C@H](NC(=O)CCCCCCCCCCCCCCCCC(=O)O)C(=O)O)C(=O)O)C(=O)O)C(=O)O)NC(=O)[C@H](CO)NC(=O)[C@H](CC(=O)O)NC(=O)[C@H](CC(C)C)NC(=O)[C@](C)(Cc1ccccc1)NC(=O)[C@H](CCCCN)NC(=O)[C@H](CO)NC(=O)[C@@H](NC(=O)[C@H](CC(=O)O)NC(=O)[C@H](CO)NC(=O)[C@@H](NC(=O)[C@H](Cc1ccccc1)NC(=O)[C@@H](NC(=O)CNC(=O)[C@H](CCC(N)=O)NC(=O)C(C)(C)NC(=O)[C@@H](N)Cc1c[nH]cn1)[C@@H](C)O)[C@@H](C)O)C(C)C)C(C)C)C(=O)N[C@@H](CC(C)C)C(=O)N[C@@H](CCC(=O)O)C(=O)NC(C)(C)C(=O)NCC(=O)O` [Peptide 136] (H-H[Aib]QGTFTSDVSK[αMeF]LDSK([γGlu-γGlu-AEEA-AEEA-γGlu-γGlu-C18 diacid])RARDFVRWLLE[Aib]G-OH; N-terminus assumed), the EC50 in test [2] (setting [3]) came to 509 pM.
